Active and inactive are the calls of the source.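 The calls were made as follows: active = half-maximal concentration for changing protein binding to DNA, from the fitted dose curve, below 10 micromolar; inactive = the rest.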
The compounds below were run against Nuclear receptor subfamily 1 group D member 1 (Homo sapiens) (UniProt P20393) (assay: Rev-erbα–DNA interaction modulators – biochemical, FITC-DNA, fluorescence polarization, dose response (AID 1259321)). Settings: Rev-erb alpha-FITC-DNA binding.
Chain of Nuclear receptor subfamily 1 group D member 1 (Homo sapiens) (P20393 whole entry, looked up): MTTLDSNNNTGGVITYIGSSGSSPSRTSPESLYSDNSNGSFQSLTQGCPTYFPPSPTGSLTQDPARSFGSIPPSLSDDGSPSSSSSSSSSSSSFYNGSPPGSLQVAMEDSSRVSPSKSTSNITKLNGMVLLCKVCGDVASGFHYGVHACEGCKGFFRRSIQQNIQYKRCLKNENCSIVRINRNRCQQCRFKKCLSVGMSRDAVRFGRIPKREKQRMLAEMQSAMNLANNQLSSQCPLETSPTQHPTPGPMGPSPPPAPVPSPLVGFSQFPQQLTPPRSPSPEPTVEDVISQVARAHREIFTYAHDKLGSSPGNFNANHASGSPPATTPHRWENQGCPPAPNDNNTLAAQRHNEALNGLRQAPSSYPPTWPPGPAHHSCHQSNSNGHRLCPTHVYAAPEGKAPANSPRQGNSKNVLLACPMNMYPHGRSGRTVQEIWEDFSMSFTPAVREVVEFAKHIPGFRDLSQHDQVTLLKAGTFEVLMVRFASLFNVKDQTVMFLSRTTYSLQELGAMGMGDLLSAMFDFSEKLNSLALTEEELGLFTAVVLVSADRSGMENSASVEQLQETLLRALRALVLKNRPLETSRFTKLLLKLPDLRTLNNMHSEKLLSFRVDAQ
For `Cc1oc2cc3oc(=O)c4c(c3cc2c1C)CCC4`, the IC50 was > 40 µM (inactive).
Compound `Cc1ccc(/C=C/c2ccc(N(C)C)cc2)[n+](C)c1` has an IC50 of 9.09 µM.
`Cn1c(SCC(=O)NCc2ccc3c(c2)OCO3)ncc(C(=O)Nc2ccc(F)cc2)c1=O` showed an IC50 of 3.91 µM.
`CC1=Nc2ccccc2/C1=C/c1sc(=S)n(-c2cccc(C(=O)O)c2)c1O` was tested, and the IC50 was > 40 µM (inactive).
With `CCOC(=O)c1nnn2c1nc(Nc1cccc(C(F)(F)F)c1)c1ccccc12` the IC50 was 1.86 µM.
`CCn1c(=NC(=O)c2ccc(N3C(=O)CCC3=O)cc2)sc2c(OC)ccc(OC)c21` showed an IC50 of 2.63 µM.
With `COc1ccc2c(c1)oc(=O)c1c3ccccc3[nH]c21` the IC50 was > 40 µM (inactive).
In the case of `O=C(OCCN1C(=O)c2cccc3c(N4CCOCC4)ccc(c23)C1=O)c1ccc(Cl)cc1Cl`, the IC50 is reported as > 40 µM (inactive).
Compound `O=C1c2cccc3c(O)ccc(c23)C(=O)N1c1ccc(Cl)cc1` has an IC50 of 2.42 µM.
`COC(=O)c1cccc(Cn2ccc3ccc(-c4ccc5ccn(C(=O)c6ccccc6OC)c5c4)cc32)c1` was tested, and the IC50 was 0.91 µM.
With `C[n+]1cc(C(=O)N2CCCCC2)ccc1/C=C/c1c[nH]c2ccccc12` the IC50 was 9.3 µM.
With `CC1(C)Cc2c(sc3c2c(N)nc(=S)n3Cc2ccccc2)CO1` the IC50 was “inactive”.
In the case of `O=C(CCc1c[nH]c2ccccc12)NCCc1ccc(Cl)cc1`, the IC50 is reported as > 40 µM (inactive).
With `Cc1ccc(-c2nc3ccccc3s2)cc1NC(=O)c1cc(-n2cnnc2)ccc1Cl` the IC50 was “inactive”.
In the case of `CCN(CC)c1ccc(/C=C(\C#N)C(N)=S)cc1`, the IC50 is reported as “inactive”.
In the case of `CSc1nc(N)c(C#N)c(-c2ccc(Cl)cc2)c1C#N`, the IC50 is reported as 4.85 µM.
With `Cc1c(C#N)c(N)nc2c3c(sc12)NC(=O)CC3c1ccc(Cl)cc1` (configuration not stated) the IC50 was > 40 µM (inactive).
`N#C/C(=C(/O)C(Cl)c1ccccc1)c1nc2ccccc2s1` (configuration not stated) was tested, and the IC50 was 5.7 µM.
In the case of `COC(=O)c1cccc(Cn2ccc3ccc(-c4ccc5ccn(C(=O)C6CCCCC6)c5c4)cc32)c1`, the IC50 is reported as 7.14 µM.
In the case of `Cc1cc2c(s1)c1cnn(Cc3c(Cl)ccc(C)c3F)c(=O)c1n2C`, the IC50 is reported as “inactive”.
Compound `Cc1cc(/C=C(/C#N)C(=O)Nc2ccc(Cl)cc2)c(C)n1-c1cccnc1` has an IC50 of 2.66 µM.
For `CN1C(=O)N(C)c2ccc(Br)c3cccc1c23`, the IC50 was > 40 µM (inactive).
Compound `O=C(Cc1ccc(Cl)cc1)c1c[nH]c(C(=O)NCc2cccnc2)c1` has an IC50 of 2.51 µM.
For `O=C(CSc1ncnc2c1oc1ccccc12)NCc1ccc(F)cc1`, the IC50 was 1.26 µM.
In the case of `O=c1oc2ccccc2c(NC(c2ccccc2)c2ccccc2)c1[N+](=O)[O-]`, the IC50 is reported as > 40 µM (inactive).
`CCOC(=O)c1sc(NC(=S)NC(=O)c2cccc(OC)c2)nc1C` was tested, and the IC50 was 8.54 µM.
`CS(=O)(=O)Nc1ccc(-c2ccc(/C=C3\SC(N)=NC3=O)o2)cc1` showed an IC50 of 8.42 µM.
In the case of `Cc1coc2cc3oc(=O)c(Cc4ccccc4)c(C)c3cc12`, the IC50 is reported as “inactive”.
`Nc1ccc2ccc3cccc[n+]3c2c1` showed an IC50 of 8.15 µM.
`O=C1/C(=C\c2cc(Cl)c(O)c(Cl)c2)SC(=S)N1Cc1ccccc1` was tested, and the IC50 was > 40 µM (inactive).
`Cc1cc(C)c2nc(SCC(=O)Nc3cc(C)on3)c(C#N)cc2c1` was tested, and the IC50 was 4.17 µM.
With `COc1cc2cc(C#N)c(SCC(=O)Nc3cc(C)on3)nc2cc1OC` the IC50 was “inactive”.
Compound `COc1ccc(-n2c(SCC(=O)NC3CCCCC3)nc3ccsc3c2=O)cc1` has an IC50 of 5.08 µM.
With `CCOc1ccccc1NC(=O)CSc1nc(N)c(C#N)cc1C#N` the IC50 was “inactive”.
With `COCCn1c(=NC(=O)CCS(=O)(=O)c2ccccc2)sc2cc(C(=O)OC)ccc21` the IC50 was > 40 µM (inactive).
`CCOC(=O)CSc1nc2cc3c(cc2cc1C#N)OCCO3` was tested, and the IC50 was > 40 µM (inactive).
Work on `Cc1cnc(NC(=O)c2cc3c(C)nn(-c4ccccc4)c3s2)s1` yielded an IC50 of 3.83 µM.
With `Cc1cc(C)c2nc(SCC(=O)Nc3ccccc3N3CCOCC3)c(C#N)cc2c1` the IC50 was 6.99 µM.
`Fc1cccc(CSc2ncnc3c2oc2ccccc23)c1` gave an IC50 of 2.38 µM.
In the case of `CCC(C)(C)c1ccc(OCCCC[n+]2ccc(C)cc2)c(C(C)(C)CC)c1`, the IC50 is reported as > 40 µM (inactive).
In the case of `Cc1ccc2nc(/C(C#N)=C/c3ccc(-c4ccccc4C(=O)O)o3)[nH]c2c1`, the IC50 is reported as “inactive”.
Work on `COCCN(Cc1cc2cc(C)ccc2n2nnnc12)C(=S)Nc1ccccc1C` yielded an IC50 of 2.73 µM.
